# Laboratory results published in US5736565A, “Therapeutic compounds suitable for the treatment of diseases connected with glutathione deficiency, process for their preparation, and pharmaceutical compositions containing same” (Prospa B.V., priority 1992, dated 1998).
# Peptide text beside a SMILES is read from it.
# Assays:
# [1] = test system: splenocytes; experiment: Blastization with concavaline A (ConA) on splenocytes of PSC-treated young and old rats; type: in vivo, Sprague-Dawley rats
# Experimental: (§1) Sprague-Dawley rats (Charles River, Calco (CO)), aged 10 weeks (young adults) and 24 months (old), were stabled under standard conditions (24°±1° C., 12 h light/dark cycle, free access to food and water). Handlings were made in such a way as to avoid stressful stimuli.
# (§2) The animals were stabled in groups of 6 per cage and treated for 2 weeks (15 days) with a PSC daily dose of 600 mg/kg by intraperitoneal route (i.p.).
# Once the treatment with PSC previously described in the paragraph "Animals" was completed, the animals were sacrificed by decapitation, spleens were excised under sterile conditions and broken up in a Petri dish. The splenocytes thus obtained by mechanical dispersion were placed in culture medium RPMI 1640 with addition of calf fetal serum (FBS) (10%).
# The resulting cellular suspension was centrifuged at 2500 rpm for 20 min on Ficoll-Paque gradient. Stratified splenocytes were taken by a sterile Pasteur pipette and washed three times with sterile FBS. Cells were counted and placed onto 96-well plastic plates at a concentration of 1×10^5 /well in of volume of 0.1 ml. The cultures thus obtained were incubated for 48 hrs at 37° C., in a […] environment. Forty-eight hours later, concavaline A (ConcA) was added to the cultures at a concentration of 1 μg/ml in a volume of 0.1 ml. Eighteen hours later, tritiated thymidine was added (volume: 10 μl). Incorporation of tritiated thymidine was stopped after 3 hrs, by elimination of excess liquid by suction and by sucking the cells on fibreglass filters. Filters were placed in scintillation vials containing 5 ml of scintillating solution (Insta-Gel). Radioactivity (dpm) was measured during 2 min using a β-counter.
# The results obtained on groups treated with ConA alone (controls), on groups treated with PSC (600 mg/kg), and on groups that had not been treated either with ConA or PSC are compared in Table 13.
# [2] = test system: peripheral lymphocytes; experiment: Blastization with concavaline A (ConA) of peripheral lymphocytes of PSC-treated rats; type: in vivo, Sprague-Dawley rats
# Experimental: as §1, §2
# Once the treatment with PSC previously described in the paragraph "Animals" was completed, the animals, both young and old, were sacrificed by decapitation and the blood collected in heparin-treated tubes. The blood samples were stratified on Ficoll-Paque gradient and centrifuged at 2500 rpm for 15 min. The lymphocytic cellular fraction was taken by suction and washed three times with a Lphysiological solution (0.9% NaCl). At the end of the treatment, the cells were resuspended in culture medium RPMI 1640 containing 10% FBS, counted (1×10^5 cells/0.1 ml/well) and incubated for 48 hrs at 37° C., in a 5% carbon dioxide environment. At the incubation end, mitogens concavaline A (ConA) and phytohaemagglutinin (PHA) were added to the cultures at a concentration of 1 μg/ml in a volume of 0.1 ml. Eighteen hours later, tritiated thymidine (0.01 ml) was added to the cultures, subsequently incubated for 3 hrs. At the incubation end, cells were sucked by cell harvester and the filters were placed in scintillation vials with addition of 5 ml of scintillating solution. Radioactivity (dpm) was measured 2 min. using a β-counter.
# The results obtained on ConA- or PHA-treated groups (controls), on PSC-treated groups (600 mg/kg), and on groups that had not been treated either with ConA or PSC are compared in Tables 14 and 15.
# [3] = test system: malonic aldehyde (MDA) in brain; experiment: PSC effect on lipid peroxidation (MDA) in rat SNC; type: in vivo, male Wistar rats; settings: old animals, 100 mg/kg i.p.
# Source text: Since lipid peroxidation, i.e. the oxidation of an α-methylenic bridge of a polyunsaturated fatty acid, is a process that, through the formation of intermediates (such as lipid peroxides and hydroperoxides), provide carbonyl fragments, including malonic aldehyde (MDA), efforts were made by the Applicant to check whether administration of the test molecule might reduce MDA levels in the SNC, which are closely related to the presence of free radicals and, consequently, to a potential neuronal damage, which is strongly responsible for the induction of age-related alterations.
# The test was carried out on male Wistar rats stabled in groups of 5/cage, at 21° C. and constant light/dark cycle, fed with standard laboratory food.
# […] was assayed both on young and old rats, prior to and after treatment with PSC (100 mg/kg). A few hours after treatment, all animals were sacrificed and their brain readily excised. MDA was determined by a micromethod modified according to Slater and Sawyer (Slater T. F. and Sawyer B. C., 1971, J. Biochem., Tokio 8: 2180). The tissue was maintained 10 min. at 0° C. in 0.05M Tris-HCl buffer, pH 7.4, and homogenized. […] After cooling, the absorbance at 532 nm was recorded by a spectrophotometer. […] Proteins were measured by Smith's method using, as a reagent, bicinchoninic acid (BCA) (Smith et al., 1985, Anal. Biochem., 27, 502).
# [4] = test system: reactive oxygen species (ROS) production of human spermatozoa; experiment: Effect of PSC on the spermatic production of free radicals (chemiluminescence with luminol); type: cell-based
# Source text: Free radicals production was investigated under basal and maximal conditions (after A23187 addition) on controls and in the presence of PSC.
# A23187 is an ionophore bivalent cation that, under physiological conditions, promotes acrosomial reaction. It is used being capable of stimulating the production of superoxide radicals (Aitken R. J. et al., Generation of reactive oxygen species, lipid peroxidation and human sperm function, J. of Reproduction, 40, 183-197, 1989).
# Seminal fluid was obtained from 11 donors previously subjected to a complete medical check-up, to exclude the presence, if any, of sexual transmission diseases. Samples were obtained by masturbation and analysed within 1.5 hrs thereafter.
# Spermatozoa were separated from seminal fluid by three centrifugation cycles (500×g for 5 min) and resuspended in medium BWW (Biggers et al., "The culture of mouse embryos in vitro", Daniel J. C. ed., Methods in mammalian embryology, 86-116, 1971) at a concentration of 20×10^6 /ml.
# The production of reactive oxygen species (ROS) was evaluated by chemiluminescence with luminol: human spermatozoa suspensions at a concentration of […] in a volume of 500 μl were subjected to the action of luminol (LM 100 mmol/l in dimethyl sulphoxide).Said spermatic suspension was then diluted with 500 μl of medium BWW alone (control) or containing PSC (10 mM); other spermatic suspensions contained A23187 (0.05 mg/ml) alone (positive control) and, respectively, A23187 (0.05 mg/ml)+PSC (10 mM).
# 3 Minutes later, the chemiluminescent signal was recorded. Reactive oxygen species (ROS) production was expressed as photons brust (cpm) recorded by a luminometer Berthold L 9500.
# [5] = 600 mg/kg i.p. 15 days + ConA, *P < 0.05
# [6] = 600 mg/kg, analogous for ConA and PHA
smiles,measurement,setting,value
"CC(=O)SC[C@H](NC(=O)[C@@H]1CCC(=O)N1)C(=O)O [PSC, 2-(S)-(2-pyrrolidone-5-(S)-carbonyl amido)-3-acetylmercapto propionic acid] (HELM PEPTIDE1{[Glp].C}|PEPTIDE2{[ac]}$PEPTIDE1,PEPTIDE2,2:R3-1:R2$$$V2.0)",splenocytes blastization induced by ConA (in words),[1]; 600 mg/kg,showed a significant increase in splenocytes blastization induced by ConA
same,"blastization (tritiated thymidine incorporation), Young",[1]; 600 mg/kg i.p. 15 days + ConA,1488 ± 62 DPM × 100
same,"blastization (tritiated thymidine incorporation), Old",[1]; [5],1250 ± 11 DPM × 100
same,"blastization (tritiated thymidine incorporation), Young",[2]; 600 mg/kg i.p. 15 days + ConA,714 ± 23 DPM × 100
same,"blastization (tritiated thymidine incorporation), Elderly",[2]; [5],512 ± 27 DPM × 100
same,"incorporation index of tritiated thymidine, young rats (in words)",[2]; [6],did not differ from controls
same,"index of thymidine incorporation, old rats (in words)",[2]; [6],showed an increased index of thymidine incorporation in respect of controls
same,MDA,[3],0.723 +/- 0.32 nmols/mg proteins
same,free radicals production (in words),[4]; basal and maximal conditions,caused a significant reduction in free radicals production
same,"ROS production, photons brust",[4]; medium + A23187 (0.05 mg/ml) + PSC (10 mM),270.8 +/- 254 cpm
same,"ROS production, photons brust","[4]; medium + PSC (10 mM), basal",243.7 +/- 235.2 cpm
